Experiment [1] deals with human neuroblastoma cell line SH-SY5Y. Kind of experiment: Neurotoxicity assay, SH-SY5Y cells + erastin or RSL3, MTS cell viability. The class given is cell-based. The note with it: Homo sapiens. The procedure: (§1) The excitotoxicity model used was the mouse hippocampal neuronal HT22 cells treated with glutamate [Dixon et al., Cell, 2012, 149(5), 1060-1072]. Ferroptosis and oxidative stress are both associated in this glutamate-induced cell death [Chu et al., Neural Regen. Res., 2020, 15(3), 528-536]. Phenotypic screening was also carried out with additional cell death inducers, erastin and RSL3 ((1S,3R)-Ras-selective lethal), in HT22 and SH-SY5Y (human neuroblastoma cells). Erastin and RSL3 are well described molecules, used as chemical tools for the study of ferroptosis regulation and neuronal pathologies [Lewerenz et al., Front. Neurosci., 2018, 12: 214; Reichert et al., Int. J. Mol. Sci., 2020, 21, 8765].
(§2) Mouse hippocampal neuronal cell line (HT22, ATCC) and human neuroblastoma cell line (SH-SY5Y, ATCC) were grown in Dulbecco's Modified Eagle Medium (DMEM, Gibco) supplemented with 10% fetal bovine serum (FBS, Gibco) at 37° C. under 5% CO2 atmosphere. Neurotoxicity was induced by erastin or RSL3 and excitotoxicity was induced by glutamate. Cells were seeded in 96-well plates at 5,000 and 10,000 cells/well for HT22 and SH-SY5Y cell lines, respectively. Cells were treated with 0.5-1 μM Erastin (HT22 cells) or 10 μM Erastin (SH-SY5Y cells) or 5-10 mM glutamate (HT22 cells) or 0.5 μM RSL3 (HT22 cells) or 5 μM RSL3 (SH-SY5Y cells) for 24 h in presence of increasing concentrations of inhibitors. Cells treated with DMSO only were used as controls. Cell viability was assessed by MTS assay (CellTiter 96 AQueous One Solution Cell Proliferation assay, Promega).
(§3) In FIGS. 1, 2A and 2B, an inhibitor was added to HT22 (FIG. 1: compound 6) or SH-SY5Y (FIG. 2A: compound 6; FIG. 2B: compound 25) cells in the presence or not of cell death inducers (erastin, glutamate or RSL3). […] EC50 values for compounds 1-28 were calculated from dose-response curves using Graphpad Prism software.

Experiment [2] has as its system mouse hippocampal neuronal cell line HT22. Kind of experiment: Neurotoxicity and excitotoxicity assay, HT22 cells + glutamate, erastin or RSL3, MTS cell viability. It is filed as cell-based. Conditions: Mus musculus. The procedure: as §1, §2, §3
[3] abbreviates: SH-SY5Y cells, 5 μM RSL3, 24 h, MTS, read-out: EC50 SH-SY5Y RSL3.
Where [4] appears, read: SH-SY5Y cells, 10 μM Erastin, 24 h, MTS, read-out: EC50 SH-SY5Y Erastin.
The mark [5] stands for this setting: HT-22, HT22 cells, 0.5 μM RSL3, 24 h, MTS, read-out: EC50 HT22 RSL3.
Setting [6] is: HT-22, HT22 cells, 0.5-1 μM Erastin, 24 h, MTS, read-out: EC50 HT22 Erastin.
Setting [7] is: HT-22, HT22 cells, 5-10 mM glutamate, 24 h, MTS, read-out: EC50 HT22 Glutamate.
Setting [8] is: SH-SY5Y, 24 h, read-out: EC50 SH-SY5Y Erastin.
The mark [9] stands for this setting: SH-SY5Y, 24 h, read-out: EC50 SH-SY5Y RSL3.
Where [10] appears, read: HT-22, 24 h, read-out: EC50 HT22 Erastin.
The mark [11] stands for this setting: HT-22, 24 h, read-out: EC50 HT22 Glutamate.
Setting [12] is: HT-22, 24 h, read-out: EC50 HT22 RSL3.

SMILES strings stand for the structures. Like-named read-outs stand apart in the source and are kept apart here. Some results are limits rather than exact numbers.

Consider `CCOc1ccc(-c2cc3ccc(-c4cn[nH]c4)nc3[nH]2)cc1` [Compound 41, 2-(4-ethoxyphenyl)-6-(1H-pyrazol-4-yl)-1H-pyrrolo[2,3-b]pyridine], for which the EC50 (usually the midpoint of the concentration-response curve) in experiment [1] (setting [3]) is 2.21 µM; in experiment [1] (setting [4]), 3.68 µM; in experiment [2] (setting [5]) it was 6.5 µM.
For `CCOc1ccc(-c2cc3cccn(Cc4ccc(OC)cc4)c-3n2)cc1` [Compound 27, 2-(4-ethoxyphenyl)-7-(4-methoxybenzyl)-7H-pyrrolo[2,3-b]pyridine], the EC50 was found to be 2.46 µM in experiment [1] (setting [4]), 9.93 µM in experiment [2] (setting [5]), 3.9 µM in experiment [2] (setting [6]) and 1.5 µM in experiment [2] (setting [7]).
As to `CCOc1ccc(-c2cc3cccn(Cc4ccccc4)c-3n2)cc1` [Compound 26, 7-benzyl-2-(4-ethoxyphenyl)-7H-pyrrolo[2,3-b]pyridine], the EC50 worked out at 33.7 µM in experiment [1] (setting [3]), 9.94 µM in experiment [1] (setting [4]), 12.7 µM in experiment [2] (setting [6]) and 0.82 µM in experiment [2] (setting [7]).
For `CCOc1ccc(-c2cc3c(N4CCN(C)CC4)ccnc3[nH]2)cc1` [Compound 15, 2-(4-ethoxyphenyl)-4-(4-methylpiperazin-1-yl)-1H-pyrrolo[2,3-b]pyridine], the EC50 worked out at 2.45 µM in experiment [1] (setting [4]), 7.19 µM in experiment [2] (setting [5]), 1.54 µM in experiment [2] (setting [6]) and 0.5 µM in experiment [2] (setting [7]).
Regarding `CCOc1ccc(-c2cc3c(Nc4ccc(C(=O)c5ccccc5)cc4)ccnc3[nH]2)cc1` [Compound 11, (4-((2-(4-ethoxyphenyl)-1H-pyrrolo[2,3-b]pyridin-4-yl)amino)phenyl)(phenyl)methanone], the EC50 turned out to be 0.15 µM in experiment [1] (setting [4]), 1.16 µM in experiment [2] (setting [5]), 0.32 µM in experiment [2] (setting [6]) and 0.14 µM in experiment [2] (setting [7]).
In the case of `CCOc1ccc(-c2cc3ccc(OC(C)=O)nc3[nH]2)cc1` [Compound 38], the EC50 in experiment [1] (setting [3]) is 0.2 µM; in experiment [1] (setting [4]), 1.61 µM; in experiment [2] (setting [5]), 2.56 µM; in experiment [2] (setting [6]), 6.78 µM.
`CCOc1ccc(-c2cc3cccn(C(=O)N(C(C)C)C(C)C)c-3n2)cc1` [Compound 24, 2-(4-ethoxyphenyl)-N,N-diisopropyl-7H-pyrrolo[2,3-b]pyridine-7-carboxamide]: the EC50 in experiment [1] (setting [8]) is 11 µM; in experiment [1] (setting [9]) it was 3.43 µM; in experiment [2] (setting [10]), > 50 µM; in experiment [2] (setting [11]), > 50 µM; in experiment [2] (setting [12]), 21 µM.
Regarding `CCOc1ccc(-c2cc3ccc(N)nc3[nH]2)cc1` [Compound 36, 2-(4-ethoxyphenyl)-1H-pyrrolo[2,3-b]pyridin-6-amine], the EC50 in experiment [1] (setting [3]) was determined as 0.07 µM; in experiment [1] (setting [4]) it was 0.23 µM; in experiment [2] (setting [5]), 0.27 µM; in experiment [2] (setting [6]) it was 0.32 µM.
`CCOc1ccc(-c2cc3ccc(C#N)nc3[nH]2)cc1` [Compound 35, 2-(4-ethoxyphenyl)-1H-pyrrolo[2,3-b]pyridine-6-carbonitrile]: the EC50 in experiment [1] (setting [3]) was 1.03 µM; in experiment [1] (setting [4]) it was 5.95 µM; in experiment [2] (setting [5]), 5.4 µM; in experiment [2] (setting [6]) it was 17 µM.
Consider `COc1ccc(-c2cc3ccccc3[nH]2)cc1` [Compound 2, 2-(4-methoxyphenyl)-1H-indole], for which the EC50 in experiment [1] (setting [8]) came out at 2.9 µM; in experiment [1] (setting [9]), 7.43 µM; in experiment [2] (setting [10]), 7.92 µM; in experiment [2] (setting [11]) it was 2.66 µM; in experiment [2] (setting [12]) it was 46 µM.
`CCOc1ccc(-c2cc3ccncc3n2O)cc1` [Compound 5, 2-(4-ethoxyphenyl)-1Hpyrrolo[2,3-c]pyridin-1-ol]: the EC50 in experiment [1] (setting [4]) amounted to 0.52 µM; in experiment [2] (setting [5]) it was 2.79 µM; in experiment [2] (setting [6]) it was 3.23 µM; in experiment [2] (setting [7]) it was 3.6 µM.
Regarding `COc1ccc(-c2ccc3cc(-c4ccc(O)cc4)[nH]c3n2)cn1` [Compound 39, 4-(6-(6-methoxypyridin-3-yl)-1H-pyrrolo[2,3-b]pyridin-2-yl)phenol], the EC50 in experiment [1] (setting [3]) was 1.47 µM; in experiment [1] (setting [4]) it was 5.83 µM; in experiment [2] (setting [5]), 16.1 µM; in experiment [2] (setting [6]), 16.1 µM.
As for `CCOc1ccc(-c2cc3c(Nc4ccccc4)ccnc3[nH]2)cc1` [Compound 14, 2-(4-ethoxyphenyl)-N-phenyl-1H-pyrrolo[2,3-b]pyridin-4-amine], the EC50 in experiment [1] (setting [4]) stood at 1.11 µM; in experiment [2] (setting [5]), 0.76 µM; in experiment [2] (setting [6]), 1.52 µM; in experiment [2] (setting [7]) it was 0.55 µM.
Regarding `CCOc1ccc(-c2cc3c(N(C)c4ccccc4)ccnc3[nH]2)cc1` [Compound 44, 2-(4-ethoxyphenyl)-N-methyl-N-phenyl-1H-pyrrolo[2,3-b]pyridin-4-amine], the EC50 worked out at 2.66 µM in experiment [1] (setting [3]), 4.43 µM in experiment [1] (setting [4]), 7.12 µM in experiment [2] (setting [5]) and 0.43 µM in experiment [2] (setting [6]).
As for `CCOc1ccc(-c2cc3c(NCc4ccccc4)ccnc3[nH]2)cc1` [Compound 12, N-benzyl-2-(4-ethoxyphenyl)-1H-pyrrolo[2,3-b]pyridin-4-amine], the EC50 in experiment [1] (setting [4]) turned out to be 0.43 µM; in experiment [2] (setting [5]) it was 0.94 µM; in experiment [2] (setting [6]), 0.91 µM; in experiment [2] (setting [7]), 0.5 µM.
Take `CCOc1ccc(-c2cc3ccncc3[nH]2)cc1` [Compound 4, 2-(4-ethoxyphenyl)-1H-pyrrolo[2,3-c]pyridine]: the EC50 in experiment [1] (setting [3]) is 5.42 µM; in experiment [1] (setting [4]), 7.66 µM; in experiment [2] (setting [5]), 27.8 µM; in experiment [2] (setting [6]) it was > 25 µM; in experiment [2] (setting [7]), > 25 µM.
For the compound `CCOc1ccc(-c2cc3cccnc3n2-c2ccc([N+](=O)[O-])cn2)cc1` [Compound 19, 2-(4-ethoxyphenyl)-1-(5-nitropyridin-2-yl)-1H-pyrrolo[2,3-b]pyridine], the EC50 turned out to be 5.6 µM in experiment [1] (setting [3]); 14.3 µM in experiment [1] (setting [4]); 22.1 µM in experiment [2] (setting [5]); 23.3 µM in experiment [2] (setting [6]); 12.8 µM in experiment [2] (setting [7]).
